From ChEMBL document CHEMBL1201862, “PubChem BioAssay data set” (2004) come the findings set out here.

Common to all, as to experiment: NCI tumour cell line growth inhibition, 48 h
The subject of assay [1] is K562.
The test system of assay [2] is SK-MEL-28.
Assay [3] concerns SN12C.
For assay [4], the system named is Hs-578T.
For assay [5], the system named is PC-3.
The test system of assay [6] is MCF7.
Assay [7] deals with UACC-257.
Assay [8] has as its system SW-620.
Assay [9] relates to KM12.
In assay [10] the test system is 786-0.
The subject of assay [11] is OVCAR-8.
For assay [12], the system named is MOLT-4.
Assay [13] relates to NCI-H23.
The subject of assay [14] is RXF 393.
The test system of assay [15] is A549.
The subject of assay [16] is SK-MEL-2.
In assay [17] the test system is NCI-H522.
The subject of assay [18] is SNB-19.
For assay [19], the system named is NCI-H226.
Assay [20] deals with RPMI-8226.

SMILES strings stand for the structures.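 Growth conditions: 96-well plates. Treatment: test compound, 48 hours, 5 concentrations. Analysis: linear interpolation between bracketing concentrations; unreached endpoints set to highest concentration. At the GI50, growth is halved.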 Active and inactive are the calls of the source. No stated cut-off is given here; in the data, active = GI50 up to about 1.1 µM and inactive = higher.

For `N#CNC(=N)Nc1ccc(Cl)cc1`, the GI50 in assay [1], in [2], in assay [3], in assay [4], in assay [5] and in assay [6] was > 100 µM (inactive) each time. Besides, the GI50 in [7] is > 100 µM (inactive); in assay [8], > 100 µM (inactive); in assay [9] it was > 100 µM (inactive); in assay [10], > 100 µM (inactive); in assay [11], > 100 µM (inactive); in assay [12], 36.4 µM (inactive). The GI50 in assay [13], in assay [14], in assay [15], in assay [16], in assay [17] and in [18] was > 100 µM (inactive) in each case. The GI50 in assay [19] is 85.1 µM (inactive); in assay [20] it was > 100 µM (inactive).

Regarding `NS(=O)(=O)c1cc2c(cc1Cl)N=C(CCC(=O)O)NS2(=O)=O`, the GI50 in assay [1], in assay [2], in assay [3], in assay [4], in assay [5] and in [6] was > 100 µM (inactive) each time. Moreover, the GI50 in assay [7], in assay [8], in assay [9], in [10], in [11] and in assay [13] was > 100 µM (inactive) throughout. Besides, the GI50 in assay [14], in [15], in [16], in [17], in assay [18] and in assay [19] was > 100 µM (inactive) throughout. Also, the GI50 in [20] is > 100 µM (inactive).

For the compound `CC(=N/NC(=S)N1CCCCC1)/C(=N\NC(=S)N1CCCCC1)c1ccccc1`, the GI50 in [1] was 4.74 µM (inactive); in assay [2] it was 2.09 µM (inactive); in assay [3] it was 1.82 µM (inactive); in [4], 1.84 µM (inactive); in [5] it was 1.64 µM (inactive); in assay [6] it was 2.75 µM (inactive). Also, the GI50 in assay [7] was 1.95 µM (inactive); in [8] it was 2.15 µM (inactive); in assay [9], 1.97 µM (inactive); in [10], 1.99 µM (inactive); in [11], 2.64 µM (inactive); in assay [12], 6.19 µM (inactive). Further, the GI50 in assay [13] was 2.2 µM (inactive); in [14] it was 1.35 µM (inactive); in [15], 2.03 µM (inactive); in assay [16], 2.11 µM (inactive); in assay [17], 2.23 µM (inactive); in [18] it was 1.87 µM (inactive). In addition, the GI50 in assay [19] was 1.91 µM (inactive); in assay [20] it was 3.36 µM (inactive).

As for `CN(N=O)N1C(=O)SCC(c2ccccc2)(c2ccccc2)C1=O`, the GI50 is 65.2 µM (inactive) in [1]; 36.8 µM (inactive) in assay [2]; 31.6 µM (inactive) in assay [3]; 56.8 µM (inactive) in assay [4]; 42.4 µM (inactive) in assay [5]; 20.9 µM (inactive) in [6]. Moreover, the GI50 in [7] was 64.3 µM (inactive); in [8] it was 38.7 µM (inactive); in assay [9], 30.1 µM (inactive); in assay [10], 46.6 µM (inactive); in [11], 16.2 µM (inactive); in assay [12] it was 61.8 µM (inactive). Moreover, the GI50 in assay [13] was > 100 µM (inactive); in assay [14] it was 22.3 µM (inactive); in assay [15] it was 7.98 µM (inactive); in [16], 18.9 µM (inactive); in assay [17] it was 23.3 µM (inactive); in assay [18] it was 57.9 µM (inactive). Further, the values for the GI50 in assay [19] and in [20] were 14 µM (inactive) and 25.8 µM (inactive), respectively.

As for `COC(=O)C(C)(C)[C@@H]1OC(=O)N(S(=O)(=O)c2c(C)cc(C)cc2C)[C@H]1C(C)C`, the GI50 in [1] is > 100 µM (inactive); in assay [2], > 100 µM (inactive); in assay [3], > 100 µM (inactive); in assay [4], 43 µM (inactive); in assay [5] it was 32.7 µM (inactive); in assay [6], 75.9 µM (inactive). The GI50 in assay [7] is 60.3 µM (inactive); in [8], 82.2 µM (inactive); in assay [9], 91.4 µM (inactive); in assay [10], > 100 µM (inactive); in assay [11], > 100 µM (inactive); in [12], 40 µM (inactive). For the same compound, the GI50 in assay [13] was 46.8 µM (inactive); in [14], > 100 µM (inactive); in assay [15] it was 85.7 µM (inactive); in assay [16], 95.7 µM (inactive); in [17] it was > 100 µM (inactive); in [18] it was > 100 µM (inactive). Besides, the GI50 in [19] was 27.4 µM (inactive); in assay [20] it was > 100 µM (inactive).

Consider `Cc1c(Cl)cc(C(C)(C)C)c(O)c1Cc1c(C)c(Cl)cc(C(C)(C)C)c1O`, for which the GI50 in assay [1] was 0.752 µM (active); in [2], 2.33 µM (inactive); in assay [3], 1.87 µM (inactive); in assay [4], 0.635 µM (active); in assay [5] it was 1.64 µM (inactive); in [6] it was 1 µM (active). In addition, the GI50 in [7] is 1.36 µM (inactive); in assay [8], 1.81 µM (inactive); in assay [9], 1.44 µM (inactive); in [10], 1.73 µM (inactive); in assay [11], 1.49 µM (inactive); in [12], 0.818 µM (active). For the same compound, the GI50 is 0.656 µM (active) in assay [13]; 0.9 µM (active) in [14]; 0.804 µM (active) in assay [15]; 1.73 µM (inactive) in [16]; 0.299 µM (active) in [17]; 1.8 µM (inactive) in assay [18]. Further, the GI50 in assay [19] is 2.22 µM (inactive); in [20] it was 0.273 µM (active).

In the case of `C=COC(=O)N[C@H]1CCc2cc(OC)c(OC)c(OC)c2-c2ccc(SC)c(=O)cc21`, the GI50 in assay [1] was < 0.01 µM (active); in assay [2], 1.36 µM (inactive); in assay [3], < 0.01 µM (active); in assay [4], < 0.01 µM (active); in [5], < 0.01 µM (active); in assay [6], < 0.0136 µM (active). In addition, the GI50 in assay [7] is 0.116 µM (active); in assay [8], < 0.0286 µM (active); in assay [9] it was < 0.01 µM (active); in assay [10], < 0.01 µM (active); in assay [11] it was 0.0133 µM (active); in assay [12], < 0.01 µM (active). The GI50 in assay [13] was < 0.01 µM (active); in [14] it was < 0.0176 µM (active); in assay [15], < 0.01 µM (active); in assay [16], < 0.01 µM (active); in [17] it was < 0.01 µM (active); in assay [18] it was 0.0101 µM (active). In addition, the GI50 is 0.0372 µM (active) in [19] and < 0.01 µM (active) in assay [20].

For `COc1cc(C2c3cc4c(cc3OC(NC3CCCCC3)C2C)OCO4)cc(OC)c1OC` (centres undefined), the GI50 in [1] is 0.393 µM (active); in [2], 21.8 µM (inactive); in assay [3] it was 0.687 µM (active); in [4] it was 0.377 µM (active); in [5], 0.382 µM (active); in assay [6] it was 0.485 µM (active). The GI50 in [7] is 46.8 µM (inactive); in assay [8] it was 0.34 µM (active); in assay [9] it was 0.407 µM (active); in assay [10] it was 0.493 µM (active); in assay [11], 0.845 µM (active); in assay [12], 0.48 µM (active). Besides, the GI50 in assay [13] is 0.499 µM (active); in assay [14] it was 0.258 µM (active); in [15], 0.885 µM (active); in [16], 0.578 µM (active); in assay [17], 0.359 µM (active); in [18] it was 0.45 µM (active). The GI50 in assay [19] was 1.52 µM (inactive); in assay [20] it was 0.403 µM (active).

In the case of `CC(C)CC(NC(=O)OC(C)(C)C)C(=O)Nc1ccc(Nc2nc(F)nc(-c3c4ccccc4cn3C)n2)cc1` (centres undefined), the GI50 is 62.2 µM (inactive) in assay [1]; > 100 µM (inactive) in [2]; > 100 µM (inactive) in assay [3]; 40.3 µM (inactive) in [4]; 35.1 µM (inactive) in assay [5]; 4.89 µM (inactive) in assay [6]. Moreover, the GI50 is > 100 µM (inactive) in [7]; > 36 µM (inactive) in [8]; 12.6 µM (inactive) in [9]; > 100 µM (inactive) in assay [10]; 98.6 µM (inactive) in assay [11]; 59.7 µM (inactive) in assay [12]. The GI50 is 62.5 µM (inactive) in assay [13]; 22.2 µM (inactive) in [14]; > 100 µM (inactive) in assay [15]; > 100 µM (inactive) in assay [16]; 75.3 µM (inactive) in [17]; > 86.1 µM (inactive) in assay [18]. Further, the GI50 was > 100 µM (inactive) in assay [19] and 3.07 µM (inactive) in [20].

Regarding `O=C1O[C@H]2C3C4CCC(C4[C@@H]2I)[C@H]13` (some centres undefined), the GI50 in [1], in [2], in assay [3], in assay [4], in assay [5] and in [6] was > 100 µM (inactive) throughout. The GI50 in [7], in assay [8], in assay [9], in [10], in assay [11] and in [12] was > 100 µM (inactive) in each case. Further, the GI50 in [13], in [14], in assay [15], in assay [16], in assay [17] and in [18] was > 100 µM (inactive) throughout. The GI50 in assay [19] and in [20] was > 100 µM (inactive) throughout.
